Like-named read-outs stand apart in the source and are kept apart here.
Legend:
LPS-induced sepsis [1] = assay: LPS-induced sepsis in mice, intraperitoneal administration: serum immune marker panel (Luminex/ELISA); assay type: in vivo, C57BL/6 mice
Description: (§1) Male C57BL/6 mice weighing 10-20 g were used. Vehicle and active agents (i.e., CBD and hydroxychloroquine) alone or in combination were administered intraperitoneally (IP) (Table 4) or orally (Table 5) at 1 hour before LPS (100 μg/100 μL/mouse) injected intravenously (IV). At 2 hours after LPS injection, blood was collected from all mice by cardiac puncture, sera processed and assayed for biomarkers using either the Th17-plex for IL-1β, IL-2, IL-10, IL-12 (p70), IFN-γ and TNF-α by Luminex, plus IL-6 and D-dimer by ELISA, or the 23-plex for IL-1α, IL-1β, IL-2, IL-3, IL-4, IL-5, IL-6, IL-9, IL-10, IL-12(p40), IL-12(p70), IL-13, IL-17A, Eotaxin, G-CSF, GM-CSF, IFN-γ, KC, MCP-1(MCAF), MIP-1α, MIP-1β, RANTES, and TNF-α by Luminex, plus IL-6 by ELISA. ANOVA followed by Dunnett's test was applied for comparison between vehicle and treatment groups. p<0.05 is considered significant.

LPS-induced sepsis [2] = assay: LPS-induced sepsis in mice, oral administration: serum 23-plex immune marker panel; assay type: in vivo, C57BL/6 mice
Description: as §1

[3] = test system: LPS-induced production of inflammatory cytokines; assay: LPS-induced sepsis in mice: synergy analysis (relative inhibition of cytokine release, Excess over Bliss); assay type: in vivo, C57BL/6 mice
Description: as §1
For synergy analysis, data were baseline subtracted using the cytokine levels of sham treated mice (i.e., no LPS injection), before normalising the values for each cytokine relative to maximum values across the groups. The normalised values were used to calculate the relative inhibition where a value of 1 represents complete inhibition and a value of 0 represents no inhibition. Synergy was calculated using the statistical methods described elsewhere herein.
(§2) Drug synergy was determined using the Bliss Independence method where the predicted effect of the drug combination is calculated using the equation: […]

[4] = test system: LPS-induced pulmonary inflammation; assay: LPS-induced pulmonary inflammation: BALF white blood cell count; assay type: in vivo, C57BL/B6 mice; settings: CBD 10 mg/kg, HCQ 2.5 mg/kg, alone or combined
Description: Male C57BL/B6 mice weighing 10-20 g were used. Vehicle and active agents (i.e., CBD and hydroxychloroquine) alone or in combination were administered intraperitoneally (IP) at 1 hour before LPS (˜80 mg/kg) was administered intratracheally. 24 hours after LPS injection, mice were anaesthetized with pentoparbital and 0.5 mL of PBS was administered twice through a tracheal cannula after which approximately 0.6 mL of broncheoalveolar lavage fluid (BALF) was obtained. The BALF was assayed for IL-1β, TNF-α, MCP-1(MCAF) and CXCL-1 by Luminex. ANOVA followed by Dunnett's test was applied for comparison between vehicle and treatment groups. p<0.05 was considered significant.
BALF collected from mice were also analysed for white blood cell (WBC) count using an automatic haematology analyser. Cell counts were normalised using sham treated mice, and analysed relative to the highest values across the groups (Table 27).

[5] = test system: human peripheral blood mononuclear cells (PBMCs) stimulated with bacterial lipopolysaccharide (LPS); assay: Cytokine release from LPS-stimulated human PBMCs (checkerboard, Luminex), Bliss synergy; assay type: cell-based; settings: PBMC
Description: The anti-inflammatory activity the combination of CBD and hydroxychloroquine was assessed by determining cytokine release from human peripheral blood mononuclear cells (PBMCs) stimulated with bacterial lipopolysaccharide (LPS) using a Luminex based assay. A 96-well microtitre plate-based checkerboard assay with seven concentrations (including the no drug control) of CBD and hydroxychloroquine were assessed in combination was used to determine the drug-drug interaction. Briefly, frozen PMBCs from two independent donors were thawed, diluted in culture medium, seeded into 96-well microtitre plates and incubated at 37° C., 5% CO2 for 1 hour prior to the addition of test compounds. After the addition of the test compounds the cells were returned to the incubator for 1 hour, after which LPS was added to the wells. Plates were incubated at 37° C., 5% CO2 for 24 hours. After 24 hours, cell culture supernatants were removed and analysed for cytokine levels using Luminex methodology according to manufacturers' instructions. All values had the vehicle background subtracted prior to further analysis. Three plates were set up in parallel using the PBMCs from the same donor. Inhibition of cytokine release was determined relative to the no treatment control (i.e., that was stimulated with LPS) and averaged across the three replicates. A cytotoxicity assay using AlmarBlue with the identical plate set up was performed in parallel.
as §2
Synergy values for each combination of drug concentrations were calculated using the Excess Over Bliss method (the difference between the observed and predicted inhibition) described by, e.g., Liu et al. (2018, Statistics in Biopharmaceutical Research, 10: 112-122, where a value greater than 0 is indicative of synergy and the higher the value the stronger the synergy.

[6] = test system: LPS-induced pulmonary inflammation; assay: LPS-induced pulmonary inflammation: BALF cytokines, synergy analysis; assay type: in vivo, C57BL/B6 mice; settings: CBD 1 mg/kg, HCQ 25 mg/kg, alone or combined; observed
[7] = CBD 1, 5, 10, 25, 50 and 100 mg/kg IP
[8] = CBD 10 mg/kg alone, 1 = complete inhibition
[9] = CBD 10 mg/kg, HCQ 100 mg/kg, alone or combined, observed

SMILES: C=C(C)[C@@H]1CCC(C)=C[C@H]1c1c(O)cc(CCCCC)cc1O [CBD, cannabidiol]
- IFN-γ level vs vehicle group (LPS-induced sepsis [1]; CBD 5 mg/kg IP): Moderate reductions
- IFN-γ level vs vehicle group (LPS-induced sepsis [1]; CBD 10 mg/kg IP): moderate reduction
- IL-1β level vs vehicle group (LPS-induced sepsis [1]; CBD 10 mg/kg IP): moderate reduction
- IL-2 level vs vehicle group (LPS-induced sepsis [1]; CBD 10 mg/kg IP): moderate reduction
- IL-12(p70) level vs vehicle group (LPS-induced sepsis [1]; CBD 10 mg/kg IP): moderate reduction
- TNF-α level vs vehicle group (LPS-induced sepsis [1]; CBD 10 mg/kg IP): moderate reduction
- IFN-γ level vs vehicle group (LPS-induced sepsis [1]; CBD 25 mg/kg IP): Moderate reductions
- TNF-α level vs vehicle group (LPS-induced sepsis [1]; CBD 25 mg/kg IP): Moderate reductions
- IL-1β level vs vehicle group (LPS-induced sepsis [1]; CBD 100 mg/kg IP): significant (p<0.05) increase
- IL-10 level vs vehicle group (LPS-induced sepsis [1]; CBD 100 mg/kg IP): significant (p<0.05) increase
- LPS-induced D-dimer level vs vehicle control (LPS-induced sepsis [1]; [7]): dose-dependent increase
- LPS-induced IL-1β level vs vehicle control (LPS-induced sepsis [1]; [7]): dose-dependent increase
- LPS-induced IL-10 level vs vehicle control (LPS-induced sepsis [1]; [7]): dose-dependent increase
- Shape of dose response in the reduction of LPS-induced cytokine levels (LPS-induced sepsis [1]; CBD 1-100 mg/kg IP): bell-shaped dose response curve
- Effect on biomarker levels (LPS-induced sepsis [2]; CBD 1 mg/kg PO alone): little or no effect
- LPS-induced IL-1α release vs vehicle group (LPS-induced sepsis [2]; CBD 10 mg/kg PO alone): moderate suppression
- LPS-induced IL-1β release vs vehicle group (LPS-induced sepsis [2]; CBD 10 mg/kg PO alone): moderate suppression
- LPS-induced IL-2 release vs vehicle group (LPS-induced sepsis [2]; CBD 10 mg/kg PO alone): moderate suppression
- LPS-induced IL-4 release vs vehicle group (LPS-induced sepsis [2]; CBD 10 mg/kg PO alone): moderate suppression
- LPS-induced IL-5 release vs vehicle group (LPS-induced sepsis [2]; CBD 10 mg/kg PO alone): moderate suppression
- LPS-induced IL-9 release vs vehicle group (LPS-induced sepsis [2]; CBD 10 mg/kg PO alone): moderate suppression
- Relative inhibition of IFN-γ release in vivo [3, 8]: 0.00
- Relative inhibition of IL-6 release in vivo [3, 8]: 0.14
- Relative inhibition of IL-12(p70) release in vivo [3, 8]: 0.00
- Relative inhibition of TNF-α release in vivo [3, 8]: 0.00
- IFN-γ, relative inhibition of cytokine release [3, 9]: 0.00
- IL-1β, relative inhibition of cytokine release [3, 9]: 0.34
- IL-6, relative inhibition of cytokine release [3, 9]: 0.14
- IL-12(p70), relative inhibition of cytokine release [3, 9]: 0.00
- TNF-α, relative inhibition of cytokine release [3, 9]: 0.00
- Relative inhibition of IL-6 release in vivo ([3]; CBD 25 mg/kg alone): 0.03
- IL-6, relative inhibition of cytokine release ([3]; CBD 25 mg/kg, HCQ 100 mg/kg, alone or combined, observed): 0.03
- Relative reduction in white blood cell counts: Neutrophil [4]: 0.25
- Relative reduction in white blood cell counts: WBC [4]: 0.27
- inhibition at 5 µg/mL ([5]; Donor 1, CBD 5.00 μg/mL alone, read-out: FIE (fractional inhibitory effect), IL-1α release): 40%
- inhibition at 5 µg/mL ([5]; Donor 1, CBD 5.00 μg/mL alone, read-out: FIE (fractional inhibitory effect), IL-1β release): 38%
- inhibition at 5 µg/mL ([5]; Donor 1, CBD 5.00 μg/mL alone, read-out: FIE (fractional inhibitory effect), IL-6 release): 8%
- inhibition at 5 µg/mL ([5]; Donor 1, CBD 5.00 μg/mL alone, read-out: FIE (fractional inhibitory effect), MIP-1α release): 12%
- inhibition at 5 µg/mL ([5]; Donor 1, CBD 5.00 μg/mL alone, read-out: FIE (fractional inhibitory effect), TNF-α release): 5%
- inhibition at 5 µg/mL ([5]; Donor 2, CBD 5.00 μg/mL alone, read-out: FIE (fractional inhibitory effect), IL-1α release): 28%
- inhibition at 5 µg/mL ([5]; Donor 2, CBD 5.00 μg/mL alone, read-out: FIE (fractional inhibitory effect), IL-1β release): 13%
- inhibition at 5 µg/mL ([5]; Donor 2, CBD 5.00 μg/mL alone, read-out: FIE (fractional inhibitory effect), IL-6 release): 9%
- inhibition at 5 µg/mL ([5]; Donor 2, CBD 5.00 μg/mL alone, read-out: FIE (fractional inhibitory effect), MIP-1α release): 0%
- inhibition at 5 µg/mL ([5]; Donor 2, CBD 5.00 μg/mL alone, read-out: FIE (fractional inhibitory effect), TNF-α release): 7%
- IL-6, relative inhibition of cytokine release (BALF) [6]: 0.15

Reference: patent US20230128114A1, “METHODS AND COMPOSITIONS FOR TREATING OR PREVENTING AN INFLAMMATORY CONDITION” (priority 2020, published 2023)
